This is an account of results in ChEMBL document CHEMBL1201862, “PubChem BioAssay data set” (2004).

Structures are written as SMILES.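 All cell lines were grown in 96-well plates and treated with compound for 48 hours. Abbreviation: GI50, concentration required for 50% inhibition of growth.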 Activity calls are given as the source filed them. No stated cut-off is given here; in the data, active = GI50 up to about 1.1 µM and inactive = higher. Where a SMILES comes first, the peptide text is derived from it. The star is where a group is joined. Boc = CC(C)(C)OC(=O)* Where only a bound is given, the exact number is not on record here.

Some test systems named below: SF-539; RXF 393; OVCAR-8; Hs-578T; MDA-MB-435; OVCAR-3; EKVX; SK-MEL-5; MOLT-4; 786-0; UACC-62; MDA-MB-231; U-251; NCI/ADR-RES; KM12; MDA-N; SF-295; SNB-75; M14; SK-MEL-28.
Assay in all cases: NCI-60 cell line screen, 48 h

Regarding `COc1ccc(C(OC(=O)[C@H](O[Si](C)(C)C(C)(C)C)[C@@H](NC(=O)c2ccccc2)c2ccccc2)c2ccc(OC)cc2)cc1`, the GI50 with SF-539, in the experiment with RXF 393, with OVCAR-8, with Hs-578T, in the experiment on MDA-MB-435 and with OVCAR-3 was > 100 µM (inactive) in each case. Further, the GI50 in the experiment with EKVX was > 100 µM (inactive); in the experiment on SK-MEL-5, 77.1 µM (inactive); in the experiment on MOLT-4, 52 µM (inactive); in the experiment on 786-0, > 100 µM (inactive); in the experiment with UACC-62 it was > 100 µM (inactive); in the experiment on MDA-MB-231 it was 48.3 µM (inactive). In addition, the GI50 in the experiment on U-251 was > 100 µM (inactive); in the experiment with NCI/ADR-RES, > 100 µM (inactive); in the experiment with KM12 it was > 100 µM (inactive); with MDA-N, > 100 µM (inactive); with SF-295 it was 3.75 µM (inactive); with SNB-75, > 100 µM (inactive).

Consider `Cc1cccc(Nc2nc(NNC(=O)Cc3ccccc3)nc(NNC(=O)c3ccncc3)n2)c1`, for which the GI50 in the experiment on SF-539, in the experiment with RXF 393, with OVCAR-8, with Hs-578T, with M14 and with MDA-MB-435 was > 10 µM (inactive) throughout. For the same molecule, the GI50 in the experiment on EKVX, in the experiment with SK-MEL-5, in the experiment with MOLT-4, with 786-0, in the experiment on UACC-62 and in the experiment on MDA-MB-231 was > 10 µM (inactive) each time. Besides, the GI50 in the experiment on NCI/ADR-RES, in the experiment on KM12, in the experiment on MDA-N, in the experiment with SF-295, with SK-MEL-28 and in the experiment on SNB-75 was > 10 µM (inactive) throughout.

In the case of `Oc1c2cc(Br)cc1CCc1cc(Br)cc(c1O)CC2`, the GI50 is 28.4 µM (inactive) in the experiment with SF-539; 20.2 µM (inactive) in the experiment on RXF 393; 28.8 µM (inactive) with OVCAR-8; 23.1 µM (inactive) with Hs-578T; 16.3 µM (inactive) in the experiment with M14; 29.2 µM (inactive) with MDA-MB-435. Further, the GI50 with OVCAR-3 was 20.2 µM (inactive); with SK-MEL-5 it was 13.6 µM (inactive); in the experiment with MOLT-4 it was 18 µM (inactive); in the experiment on 786-0, 30.2 µM (inactive); in the experiment with UACC-62, 18.6 µM (inactive); with MDA-MB-231 it was 14 µM (inactive). The GI50 was 23.6 µM (inactive) in the experiment on U-251; 21.6 µM (inactive) with NCI/ADR-RES; 17.3 µM (inactive) with KM12; 30.1 µM (inactive) with MDA-N; 18.3 µM (inactive) in the experiment with SF-295; 27 µM (inactive) in the experiment with SK-MEL-28. For the same molecule, the GI50 in the experiment with SNB-75 was 21.6 µM (inactive).

For the molecule `CCOC(=O)c1c(-c2ccccc2)c(C)cn1C`, the GI50 with SF-539, with RXF 393, in the experiment with OVCAR-8, with Hs-578T, in the experiment with M14 and in the experiment on MDA-MB-435 was > 10 µM (inactive) each time. The GI50 is > 10 µM (inactive) in the experiment on OVCAR-3; > 10 µM (inactive) in the experiment on EKVX; > 10 µM (inactive) in the experiment on MOLT-4; > 10 µM (inactive) in the experiment on 786-0; > 10 µM (inactive) in the experiment on UACC-62; 0.0125 µM (active) with MDA-MB-231. Further, the GI50 in the experiment on U-251, in the experiment on NCI/ADR-RES, in the experiment on KM12, with MDA-N, in the experiment with SF-295 and in the experiment with SNB-75 was > 10 µM (inactive) each time.

As for `COC(=O)CNC(=O)C(Cc1ccccc1)NC(=O)C(CCSC)NC(=O)C(Cc1ccc(O)cc1)NC(=O)OC(C)(C)C` (centres undefined) (Boc-YMFG-OMe; configuration not given here), the GI50 in the experiment with SF-539 is > 100 µM (inactive); with RXF 393, 47.6 µM (inactive); with OVCAR-8 it was 39.9 µM (inactive); in the experiment with Hs-578T it was > 100 µM (inactive); in the experiment with M14 it was > 100 µM (inactive); in the experiment on MDA-MB-435, > 100 µM (inactive). Also, the GI50 with OVCAR-3 is 16.9 µM (inactive); in the experiment with SK-MEL-5 it was > 100 µM (inactive); in the experiment on MOLT-4 it was 17.5 µM (inactive); in the experiment with 786-0, > 100 µM (inactive); in the experiment on UACC-62, 30.1 µM (inactive); with MDA-MB-231, 24.5 µM (inactive). In addition, the GI50 with U-251 is 41.6 µM (inactive); in the experiment with NCI/ADR-RES, > 100 µM (inactive); in the experiment with KM12, > 100 µM (inactive); with MDA-N, 33.3 µM (inactive); in the experiment with SF-295, > 100 µM (inactive); in the experiment with SK-MEL-28, 18.2 µM (inactive). The GI50 in the experiment on SNB-75 was > 100 µM (inactive).

On to `CC(=O)N1C(Nc2cnc3ccccc3c2)CCN1c1ccccc1` (centres undefined), for which the GI50 in the experiment with SF-539, in the experiment with RXF 393, in the experiment on OVCAR-8, in the experiment with Hs-578T, in the experiment on M14 and in the experiment with MDA-MB-435 was > 10 µM (inactive) in each case. The GI50 in the experiment with OVCAR-3, with EKVX, in the experiment with SK-MEL-5, in the experiment on MOLT-4, in the experiment on 786-0 and in the experiment on MDA-MB-231 was > 10 µM (inactive) throughout. For the same molecule, the GI50 with NCI/ADR-RES, in the experiment on MDA-N, in the experiment on SF-295, with SK-MEL-28 and with SNB-75 was > 10 µM (inactive) throughout.

As for `Clc1nc(Nc2nc3ccccc3[nH]2)nc(Cl)c1Cc1ccccc1`, the GI50 in the experiment on SF-539 is 31.2 µM (inactive); in the experiment with RXF 393, > 100 µM (inactive); with OVCAR-8, > 100 µM (inactive); with Hs-578T it was 32.4 µM (inactive); with M14 it was > 100 µM (inactive); in the experiment on MDA-MB-435 it was > 100 µM (inactive). In addition, the GI50 in the experiment on EKVX was > 100 µM (inactive); with SK-MEL-5 it was > 100 µM (inactive); in the experiment on MOLT-4, > 100 µM (inactive); in the experiment on 786-0, 45.9 µM (inactive); with UACC-62, 72.4 µM (inactive); with MDA-MB-231 it was 30.7 µM (inactive). Also, the GI50 with U-251 was 29.6 µM (inactive); in the experiment with NCI/ADR-RES, > 100 µM (inactive); in the experiment with KM12, 81.7 µM (inactive); in the experiment with MDA-N, 66.4 µM (inactive); in the experiment with SF-295 it was > 100 µM (inactive); in the experiment on SK-MEL-28, > 100 µM (inactive). The GI50 in the experiment with SNB-75 was 17.9 µM (inactive).

Take `N=c1oc2cc(O)ccc2cc1C(=O)NCc1ccccc1`: the GI50 was 21.9 µM (inactive) in the experiment with SF-539; 19.5 µM (inactive) with RXF 393; 27.4 µM (inactive) in the experiment on OVCAR-8; 15.3 µM (inactive) in the experiment on Hs-578T; 34.7 µM (inactive) with M14; 17.7 µM (inactive) in the experiment with MDA-MB-435. The GI50 in the experiment with OVCAR-3 was 22.6 µM (inactive); in the experiment with EKVX, 32.8 µM (inactive); with SK-MEL-5, 12.9 µM (inactive); in the experiment with MOLT-4, 15.7 µM (inactive); with 786-0 it was 32.1 µM (inactive); in the experiment with MDA-MB-231, 24 µM (inactive). Further, the GI50 was 18.7 µM (inactive) in the experiment on U-251; 19.7 µM (inactive) with NCI/ADR-RES; 32.3 µM (inactive) in the experiment with KM12; 19.3 µM (inactive) in the experiment with MDA-N; 35.2 µM (inactive) in the experiment with SF-295; 27.6 µM (inactive) with SK-MEL-28. The GI50 in the experiment with SNB-75 is 8.85 µM (inactive).

As to `N#CC1=C(S)N(C2OC(CO)C(O)C(O)C2O)C(c2ccccc2)=CC1c1cccs1` (centres undefined), the GI50 was 18.6 µM (inactive) in the experiment on SF-539; 20 µM (inactive) in the experiment on RXF 393; 22.3 µM (inactive) with OVCAR-8; 23.4 µM (inactive) in the experiment with Hs-578T; 33.3 µM (inactive) in the experiment on M14; 20.3 µM (inactive) with MDA-MB-435. In addition, the GI50 was 27.9 µM (inactive) in the experiment with OVCAR-3; 14.1 µM (inactive) with SK-MEL-5; 22.7 µM (inactive) with MOLT-4; 16.5 µM (inactive) in the experiment on 786-0; 18.8 µM (inactive) in the experiment with UACC-62; 27.2 µM (inactive) in the experiment with MDA-MB-231. In addition, the GI50 in the experiment on U-251 was 20 µM (inactive); with NCI/ADR-RES, > 100 µM (inactive); with KM12 it was 18.8 µM (inactive); with MDA-N, 15.4 µM (inactive); in the experiment on SF-295, 17.5 µM (inactive); in the experiment with SK-MEL-28, 21.1 µM (inactive). In addition, the GI50 in the experiment on SNB-75 is 20.5 µM (inactive).

On to `COCCNC1CCC(=O)c2[nH]c3ccccc3c21` (centres undefined), for which the GI50 in the experiment on SF-539 is > 100 µM (inactive); in the experiment with RXF 393, > 100 µM (inactive); with OVCAR-8 it was > 100 µM (inactive); in the experiment with Hs-578T, 83.9 µM (inactive); in the experiment with M14, > 100 µM (inactive); in the experiment with MDA-MB-435 it was > 100 µM (inactive). Further, the GI50 was 40.2 µM (inactive) with OVCAR-3; 27.1 µM (inactive) with EKVX; > 100 µM (inactive) in the experiment on SK-MEL-5; > 100 µM (inactive) in the experiment on MOLT-4; > 100 µM (inactive) in the experiment with 786-0; > 100 µM (inactive) in the experiment with MDA-MB-231. Moreover, the GI50 in the experiment on U-251, in the experiment on NCI/ADR-RES, in the experiment on KM12, with MDA-N, with SF-295 and with SK-MEL-28 was > 100 µM (inactive) each time. Also, the GI50 in the experiment with SNB-75 was > 100 µM (inactive).

For the molecule `CC(C)(C)OC(=O)[N+](=N)C(=O)C1CCC(=O)N1C(=O)OCc1ccccc1` (centres undefined), the GI50 in the experiment on RXF 393 is > 100 µM (inactive); in the experiment on OVCAR-8 it was > 100 µM (inactive); in the experiment with Hs-578T, > 100 µM (inactive); in the experiment with M14, > 100 µM (inactive); with MDA-MB-435 it was 86.7 µM (inactive); with OVCAR-3, > 100 µM (inactive). Also, the GI50 in the experiment with EKVX, with SK-MEL-5, with MOLT-4, in the experiment on 786-0, in the experiment on UACC-62 and with MDA-MB-231 was > 100 µM (inactive) each time. The GI50 with U-251, in the experiment with NCI/ADR-RES, in the experiment with KM12, in the experiment on MDA-N, with SF-295 and in the experiment with SK-MEL-28 was > 100 µM (inactive) in each case. For the same molecule, in the experiment on SNB-75, the GI50 is > 100 µM (inactive).
